These results are taken from PubChem BioAssay AID492986 (Sanford-Burnham Center for Chemical Genomics, 2010).

Calls of active or inactive are those of the source.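 How the source made its calls: active means IC50 below 20 µM; inactive means the rest.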

Usually IC50 stands for the concentration that inhibits the measured activity by half.

The target in the assay is Apelin receptor (Homo sapiens) (UniProt P35414). In words: APJ receptor antagonists, beta-arrestin recruitment, SAR follow-up, cell-based, CHO-K1 AGTRL-1, PathHunter luminescence, set 4 (AID 492986). To be noted: CHO-K1 AGTRL-1 beta-arrestin.
Apelin receptor (Homo sapiens), sequence (P35414 whole entry, looked up): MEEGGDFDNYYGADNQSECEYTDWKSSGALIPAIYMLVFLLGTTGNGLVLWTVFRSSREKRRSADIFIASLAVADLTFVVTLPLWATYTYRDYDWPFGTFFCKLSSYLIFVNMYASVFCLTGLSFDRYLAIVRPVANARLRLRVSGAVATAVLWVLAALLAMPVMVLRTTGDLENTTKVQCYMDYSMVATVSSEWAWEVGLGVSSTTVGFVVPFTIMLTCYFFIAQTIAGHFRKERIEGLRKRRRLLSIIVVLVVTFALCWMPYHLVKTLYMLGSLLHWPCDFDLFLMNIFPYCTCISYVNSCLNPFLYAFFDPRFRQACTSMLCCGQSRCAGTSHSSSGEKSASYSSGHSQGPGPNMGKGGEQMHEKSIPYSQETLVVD
For the molecule `Cc1cc(C)nc(SCc2cc(=O)c(OS(=O)(=O)c3ccccc3)co2)n1`, the IC50 is > 79 µM (inactive).

Take `Cc1ccnc(SCc2cc(=O)c(OC(=O)c3cccc(C#N)c3)co2)n1`: the IC50 was > 79 µM (inactive).

Consider `Cc1ccnc(SCc2cc(=O)c(NC(=O)c3ccccc3)co2)n1`, for which the IC50 is > 79 µM (inactive).

As to `O=C(Oc1coc(CCl)cc1=O)c1ccc(Cl)c([N+](=O)[O-])c1`, the IC50 is > 79 µM (inactive).

As to `O=c1cc(CSc2ccc(F)cc2)occ1O`, the IC50 was > 79 µM (inactive).

For the molecule `Cc1cc(C)nc(SCc2cc(=O)c(OS(=O)(=O)c3ccc([N+](=O)[O-])cc3)co2)n1`, the IC50 was > 79 µM (inactive).
